{"source": "patent US20120264231A1", "about": "“ASSAY FOR ORAI CALCIUM CHANNEL REGULATORS” (IMMUNE DISEASE INSTITUTE, INC., priority 2009, published 2012)", "key": {"[1]": {"tested_on": "STIM1−/− T cells", "assay": "Single-cell [Ca2+]i measurement in STIM1−/− T cells expressing STIM1 fragments", "type": "cell-based, murine", "excerpt": "To determine the competence of STIM 1 fragments to activate ORAI1 in mammalian cells, Myc-tagged STIM 1^CT and its truncated variants were introduced by retroviral expression into STIM1−/− T cells, and their ability to elevate resting Ca^2+ permeability was examined in cells loaded with Fura-2. As in human Jurkat T cells (Huang, G. N., et al., (2006); supra), expression of the soluble cytoplasmic portion of STIM 1 activated Ca^2+ influx into STIM1−/− murine T cells (FIG. 11). Elevated Ca^2+ permeability was evident in a marked increase in cytoplasmic [Ca^2+] on changing to medium containing 2 mM Ca^2+ after brief exposure to nominally Ca^2+-free medium. […] Retroviral vector alone conferred no constitutive influx above the level in control cells, as previously shown (Oh-hora, M., et al., (2008), supra).\nRetroviral expression plasmids encoding mouse STIM 1 and its cytoplasmic fragments (residues 233-685, 233-600, 233-498, or 233-463) were constructed by inserting the corresponding coding sequences between the XhoI and EcoRI sites of the vector pMSCV-CITE-eGFP-PGK-Puro (Clontech), which allows for coexpression of the inserted gene, GFP, and a puromycin resistance gene. GFP expression was used to estimate transducing efficiency.\nPrimary CD4^+ cells were purified from spleen and lymph nodes of Stim1^f1/f1 CD4-Cre^+ mice using Dynal magnetic beads (Invitrogen) following the manufacturer's instructions. Purified T cells were stimulated with anti-CD3 and anti-CD28, transduced with retroviruses obtained from transfected Phoenix packaging cells, and further expanded in IL-2-containing medium as described (Oh-hora, M., et al., Nat Immunol 9, 432-443 (2008); Ansel, K. M., et al., Nat Immunol 5, 1251-1259 (2004)). The transduction efficiency (>80%) was estimated by evaluating GFP expression using flow cytometry.\nRetrovirus-transduced CD4^+ cells isolated from Stim1^f1/f1 CD4-Cre^+ mice were incubated overnight in IL-2 free RPMI medium and loaded with 2 μM Fura-2-acetoxylmethyl ester (Invitrogen) for 45 min at ambient temperature in the dark. T cells were further attached to coverslips precoated with 0.01% poly-L-lysine, mounted to a RC-20 closed-bath flow chamber (Warner Instrument), and bathed in Ringer's solution (155 mM NaCl, 4.5 mM KCl, 2 mM CaCl2, 1 mM MgCl2, 10 mM D-glucose and 5 mM HEPES, pH 7.4). For nominally Ca^2+-free Ringer's solution CaCl2 was replaced with MgCl2. After 5 minutes of equilibration in Ringer's solution, [Ca^2+]i measurement commenced with ˜3 min perfusion of T cells with Ca^2+-free Ringer's solution at ambient temperature, followed by perfusion of Ringer's solution containing 2 mM CaCl2. The cycle was repeated once with final addition of Ringer's solution supplemented with 2 μM LaCl3 to block Ca^2+ flux. Images were acquired using a Zeiss Axiovert S200 epifluorescence microscope and OpenLab imaging analysis software (Improvision). The fluorescence data (F340 nm/F380 nm) were collected every 4 s and analyzed as described (Oh-hora, M., et al., (2008), supra; Feske, S., et al., Nature 441, 179-185 (2006)). In each experiment, for each experimental condition, 50-100 GFP-positive CD4+ T cells were analyzed."}, "[2]": {"target": "endogenous CRAC channels (ORAI1) of STIM1-/- murine T cells (mouse) (UniProt Q8BWG9)", "sequence (Q8BWG9 whole entry)": "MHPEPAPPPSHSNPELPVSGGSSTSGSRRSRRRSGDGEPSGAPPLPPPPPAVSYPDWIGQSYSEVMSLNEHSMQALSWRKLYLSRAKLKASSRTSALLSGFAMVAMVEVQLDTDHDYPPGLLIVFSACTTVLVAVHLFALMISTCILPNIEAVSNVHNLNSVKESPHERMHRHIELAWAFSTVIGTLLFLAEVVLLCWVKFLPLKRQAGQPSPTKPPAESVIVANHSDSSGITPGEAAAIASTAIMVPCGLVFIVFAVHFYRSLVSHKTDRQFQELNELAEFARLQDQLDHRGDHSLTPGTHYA", "assay": "cell-based or functional assay"}, "[3]": {"target": "ORAI1 (E106Q) (Homo sapiens, UniProt Q96D31, E106Q)", "sequence (Q96D31 65-301 E106Q)": "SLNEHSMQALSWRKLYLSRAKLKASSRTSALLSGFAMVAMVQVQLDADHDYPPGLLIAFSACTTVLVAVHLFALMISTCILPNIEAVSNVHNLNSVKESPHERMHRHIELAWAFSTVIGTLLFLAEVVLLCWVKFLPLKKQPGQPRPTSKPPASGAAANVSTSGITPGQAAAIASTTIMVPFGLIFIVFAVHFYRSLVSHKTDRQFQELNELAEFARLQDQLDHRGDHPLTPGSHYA", "assay": "Tb3+ luminescence resonance energy transfer, lanthanide binding to ORAI1", "set-up": "Human ORAI1 (65-301) with an N-terminal FLAG tag was subcloned into the pPIC3.5K vector; made in house; host or cells: Pichia pastoris (membranes)", "method": "Tb3+ luminescence resonance energy transfer (Tb3+-LRET) experiments were performed on a FluoroLog®-3 spectrofluorometer (HORIBA Scientific) with a 1-cm lengthpath cuvette at ambient temperature. Emission spectra were collected from 500 to 600 nm with the excitation set at 282 nm, or at 295 nm to minimize the contribution from tyrosine. The slit widths for excitation and emission were set at 4 nm and 8 nm, respectively. A glass filter with cutoff of ˜320 nm was used to circumvent light scattering. […] Spectra from membranes lacking ORAI1, with the same total membrane protein content, served as negative control.\nIn each case, a scan of luminescence emission from membrane suspension alone was obtained, then Tb3+ was added into the cuvette and a second scan was performed (FIG. 12). Protein content of the two samples was the same. The presence of equivalent amounts of membrane microsomes was also evidenced by identical light scattering in the two cases prior to addition of Tb3+. Characteristic Tb3+ emission peaks at 547 nm and 589 nm were prominent in the ORAI sample, attributable to energy transfer from one or more of the native tryptophan residues of the protein."}, "[4]": {"target": "human ORAI3 (Homo sapiens, UniProt Q9BRQ5)", "conditions": "for ^45Ca^2+ uptake (cpm): 75 μM 2-APB", "method": "(§1) Human ORAI3 was expressed in P. pastoris as described below. Then ^45Ca^2+ uptake was measured in a suspension of P. pastoris cells expressing ORAI3, after addition of 2-aminoethoxydiphenyl borate (2-APB), a compound known to activate ORAI3 expressed in mammalian cells.\nIndividual colonies were picked, and ORAI3 protein expression was induced by growth for eight hours in MMY medium (containing 0.5% methanol), whose formulation is given below. Cells were collected by centrifugation, and disrupted by vortexing in an Eppendorf tube with 0.5 mm glass beads. Beads, unbroken cells, and debris were removed by centrifugation at 5000 rpm in a benchtop centrifuge. The supernatant from that centrifugation was centrifuged at 100,000×g to pellet cell membranes. Cell membranes were resuspended, protein concentrations determined by Lowry or Bradford assay, and an equal amount of protein from each sample subjected to SDS-polyacrylamide gel electrophoresis and western blotting. The relative levels of Myc-ORAI3 expressed by individual colonies were compared by western blotting with antibody to the Myc tag. Colonies expressing relatively high levels of ORAI3 protein were used for the ^45Ca^2+ uptake assay.\n(§2) • Streaked out Pichia glycerol stock on RDB-plate • Grew 2-5 days at 30° C. (until colonies are large enough to easily remove) Seeded 5 mL MGY medium with 1 colony • Grew 2 days in 50 mL Falcon tube (cap partially unscrewed but taped on to allow aeration), 250 rpm, 30° C. • Seeded 50 mL MGY with the 5 mL culture (use a yeast-specific baffled flask; if scaled up, the volume of the culture was 1/10th the volume of the flask) • Grew o/n, 30° C., 250 rpm • At OD ˜2-3, spun down, checked OD and resuspended in MMY at an approximate OD of 6 (i.e., 6×5E7 cells/mL) • Grew 4 h at 28.5° C., 250 rpm, 28.5° C., with the top of the flask covered in gauze (not foil or a lid—a lot of aeration needed for induction. The temperature was under 30° C.) • Measured OD • Washed 3×25 mL in Solution A • Resuspended in Solution A for a final OD of 2 (1×10^8 cells/mL)\n• (Prepared everything else: 1 μCi/μL ^45CaCl2, 1 mL Solution S aliquots in tubes that can hold at least 2 mL, tips, etc.) • Spun sample (either 1 mL or the multiple-mL timepoint aliquot) down at 2000×g and resuspended in an equal volume of Solution C • (where applicable, added 2-APB or other things such as Solution S or lanthanum here. 75 μM 2-APB with Orai3.) • Added 1 μCi ^45CaCl2/Ml • Incubated as appropriate • When timepoint was taken, 1 mL sample (gently pipetted up and down, since Pichia settle) and added to 1 mL Solution S • Collected all samples • (This was repeated for each sample.) Presoaked 2.5 cm Whatman GF/F filter in place on the filter apparatus with 1 mL Solution S • Added the 2 mL sample/Solution S mix to the column • Turned on the vacuum and wash 3×15 mL with Solution W • Let filter dry under vacuum & removed to scintillation vial • Placed filter flat on the bottom of the vial, yeast-side up • Carefully added scintillation fluid • Counted in scintillation counter (^45Ca settings, if possible: window is 0-750, quench curve calibrations)"}, "[5]": {"tested_on": "P pastoris cells that were not engineered to express ORAI3", "method": "as §1\nas §2, with “(1×10^8 cells/mL) […]” for “(1×10^8 cells/mL)”"}}, "note": "Where two headings read alike, the source gives them in different places.", "data": [{"compound": "[Cl][La]([Cl])[Cl]", "note": "[La^3+, LaCl3, reference compound]", "values": [{"measurement": "cytoplasmic [Ca^2+] upon exposure to La^3+", "setting": "[1]; 2 μM LaCl3, continuing presence of external Ca^2+", "result": "rapid decline"}]}, {"compound": "STIM1 (233-600): truncated mouse STIM1 cytoplasmic fragment, residues 233-600", "values": [{"measurement": "maximum levels of cytoplasmic Ca^2+", "setting": "[1]; compared with STIM1^CT", "result": "somewhat less than with STIM1^CT"}, {"measurement": "rate of rise of cytoplasmic Ca^2+", "setting": "[1]; compared with STIM1^CT", "result": "nearly comparable to the rate with STIM 1^CT"}, {"measurement": "constitutive Ca^2+ influx", "setting": "[1]; retroviral expression, Fura-2", "result": "activated a prominent constitutive Ca^2+ influx"}]}, {"compound": "Myc-tagged STIM1^CT (mouse STIM1 233-685) expressed by retrovirus in STIM1-/- T cells (from UniProt P70302 233-685)", "values": [{"measurement": "steepest rise of cytoplasmic [Ca^2+] (Fura-2, single cells)", "setting": "[2]", "result": 15, "unit": "nM/s"}]}, {"compound": "[Tb+3]", "note": "[Tb3+]", "values": [{"measurement": "Tb3+ emission peaks at 547 nm and 589 nm", "setting": "[3]; Pichia membranes containing ORAI1 (E106Q), Tb3+ 10-50 μM", "result": "prominent"}, {"measurement": "Tb3+-LRET signal", "setting": "[3]; solubilized ORAI1", "result": "specific Tb3+-LRET signal"}]}, {"compound": "NCCOB(c1ccccc1)c1ccccc1", "note": "[2-APB, 2-aminoethoxydiphenyl borate]", "values": [{"measurement": "rate and extent of ^45Ca^2+ uptake", "setting": "[4]; 75 μM 2-APB versus control suspensions without 2-APB", "result": "increased"}, {"measurement": "^45Ca^2+ uptake (cpm)", "setting": "[4]; 0.5 min", "result": 2729.9, "unit": "cpm"}, {"measurement": "^45Ca^2+ uptake (cpm)", "setting": "[4]; 1 min", "result": 3137.3, "unit": "cpm"}, {"measurement": "^45Ca^2+ uptake (cpm)", "setting": "[4]; 2 min", "result": 4662.1, "unit": "cpm"}, {"measurement": "^45Ca^2+ uptake (cpm)", "setting": "[4]; 4 min", "result": 6019.2, "unit": "cpm"}, {"measurement": "^45Ca^2+ uptake (cpm)", "setting": "[4]; ~0.25 min", "result": 1913.5, "unit": "cpm"}, {"measurement": "effect on ^45Ca^2+ uptake", "setting": "[5]", "result": "did not have this effect"}]}]}
